Measured values published in patent US20080267948A1, “Croos-B Structure Binding Compounds” (priority 2005, published 2008).
“Also recorded” adds a separate entry of the source.

Columns and labels:
Hb-AGE = molecular target: T1, Hb-AGE (Homo sapiens, UniProt P68871+P69905); test: ELISA binding of tPA to immobilized Hb-AGE after pre-incubation with compounds; settings: Hb-AGE first overlayed with compound (concentration series), then tPA
T1 construct: purchased Sigma-Aldrich H7379
Protocol: Compounds were now diluted 10× in PBS/0.1% Tween20 (500 μg/ml compound). […] With the selection, similar binding assays are performed with misfolded OVA and Aβ. Finally, concentration series of the selected compounds are used in the binding studies.

ovalbumin = molecular target: T2, ovalbumin (Gallus gallus, UniProt P01012); test: Transmission electron microscopy of ovalbumin heated in the presence of small compounds; design: species or system chicken; settings: 1 mg/ml ovalbumin heated with 1 mg/ml compound
T2 construct: purchased Sigma A5503
T2 sequence (P01012 1-386): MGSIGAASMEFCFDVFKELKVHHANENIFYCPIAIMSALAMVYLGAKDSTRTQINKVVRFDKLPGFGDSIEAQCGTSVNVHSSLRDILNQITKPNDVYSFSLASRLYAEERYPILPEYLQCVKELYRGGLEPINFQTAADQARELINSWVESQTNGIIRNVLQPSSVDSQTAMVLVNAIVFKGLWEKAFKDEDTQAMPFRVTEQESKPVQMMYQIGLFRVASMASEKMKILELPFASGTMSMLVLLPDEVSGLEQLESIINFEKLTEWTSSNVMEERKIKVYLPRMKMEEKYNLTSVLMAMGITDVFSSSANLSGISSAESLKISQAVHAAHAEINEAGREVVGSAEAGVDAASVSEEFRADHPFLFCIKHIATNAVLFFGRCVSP
Protocol: For TEM analyses grids were prepared according to standard procedures. Ovalbumin samples at 1 mg/ml were applied to 100-mesh copper grids with carbon coated Formvar (Merck, Germany), and subsequently washed with PBS and H2O. Grids were applied to droplets of 2% (m/v) methylcellulose with 0.4% (m/v) uranylacetate pH 4. After a 2-minutes incubation grids were dried on a filter. Images were recorded at 80 kV, at suitable magnifications on a JEM-1200EX electron microscope (JEOL, Japan).

amyloid-β(1-40) E22Q = molecular target: T3, amyloid-β(1-40) E22Q (Homo sapiens, UniProt P05067, E693Q); test: ELISA binding of tPA to immobilized Aβ after pre-incubation with compounds; settings: Aβ first overlayed with compound (concentration series), then tPA
T3 construct: For similar ELISA's with DOVA and Aβ(1-40) E22Q, 1 μg/ml DOVA or Aβ was coated; purchased Peptide facility, Dutch Cancer Institute, Amsterdam; host or cells: synthetic peptide
T3 sequence (P05067 672-711 E693Q): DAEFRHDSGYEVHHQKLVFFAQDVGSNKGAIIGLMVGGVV
Protocol: Compounds were now diluted 10× in PBS/0.1% Tween20 (500 μg/ml compound). […] With this approach a further selection of the compounds was achieved. Now, compounds that at least interact with HB-AGE are selected. With the selection, similar binding assays are performed with misfolded OVA and Aβ. Finally, concentration series of the selected compounds are used in the binding studies.

heat-denatured ovalbumin = molecular target: T4, heat-denatured ovalbumin (Gallus gallus, UniProt P01012); test: Thioflavin T fluorescence of ovalbumin and small compounds; design: species or system chicken; settings: 1 mg/ml compound, 1 mg/ml OVA
T4 construct: purchased Sigma A5503
T4 sequence (P01012 1-386): T2 sequence (P01012 1-386)
Protocol: To establish the enhancement of Thioflavin T fluorescence by ovalbumin preparations, 90 μl of 25 μM ThT-solution in 50 mM Glycine buffer (pH 9.0) was added to 10 μl sample in duplicate wells of black 96-wells plates. Heat-denatured ovalbumin at 1 mg/ml in PBS with no addition, DMSO at a final concentration of 1% v/v, or 1 mg/ml of the compounds listed in Table 7, was used. Compound stocks are 100 mg/ml in DMSO. In addition, ovalbumin at 1 mg/ml with the same additions was first heat denatured and subsequently used in the fluorescence assay. Heat denaturation was according to the protocol given above. Fluorescence of duplicates was measured on a Thermo Fluoroskan Ascent 2.5, at 435 nm excitation and 485 nm emission wavelengths.

tPA/plasminogen [1] = molecular target: T5, tPA/plasminogen (Homo sapiens, UniProt P00750); test: tPA/plasminogen activation by OVA heated in the presence of compounds (substrate PNAPEP1751); format: biochemical; settings: 25 μg/ml OVA, 25 μg/ml compound, […] DMSO
T5 construct: purchased Boehringer Ingelheim Actilyse
T5 sequence (P00750 36-562): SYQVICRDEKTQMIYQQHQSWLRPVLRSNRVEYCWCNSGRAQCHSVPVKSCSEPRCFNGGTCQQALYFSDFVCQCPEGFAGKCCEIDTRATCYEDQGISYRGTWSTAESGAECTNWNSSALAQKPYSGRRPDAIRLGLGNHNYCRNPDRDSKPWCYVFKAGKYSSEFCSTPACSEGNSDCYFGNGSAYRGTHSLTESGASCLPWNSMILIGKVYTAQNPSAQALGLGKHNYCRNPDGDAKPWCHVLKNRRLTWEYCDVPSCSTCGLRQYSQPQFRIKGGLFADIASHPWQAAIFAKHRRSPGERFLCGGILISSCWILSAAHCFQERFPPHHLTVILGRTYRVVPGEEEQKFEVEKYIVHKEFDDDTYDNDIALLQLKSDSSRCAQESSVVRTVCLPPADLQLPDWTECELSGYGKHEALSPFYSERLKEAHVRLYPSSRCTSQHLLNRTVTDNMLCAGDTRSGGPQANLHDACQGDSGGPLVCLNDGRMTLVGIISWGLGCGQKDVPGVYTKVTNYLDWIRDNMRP
Protocol: Heated OVA, either in PBS/1% DMSO (positive control), or in the same buffer in the presence of 1 mg/ml of the compounds, was used 40-fold diluted in the assay. Negative control was buffer without OVA. […] In addition, it was assessed whether the compounds interfere with absorbance readings at 405 nm, with converted chromogenic substrate. […] The yellow solution is divided over wells of an ELISA plate. […] Signals are compared and related to the control.

tPA/plasminogen [2] = molecular target: T5, tPA/plasminogen; test: tPA/plasminogen activation by pre-formed misfolded OVA in the presence of compounds; format: biochemical; settings: 80-fold or 160-fold diluted compound and misfolded OVA stocks of 1 mg/ml
Protocol: […] Negative control was buffer without OVA. […] In addition, it was assessed whether the compounds interfere with absorbance readings at 405 nm, with converted chromogenic substrate. […] The yellow solution is divided over wells of an ELISA plate. […] Signals are compared and related to the control.

tPA = tPA (Homo sapiens, UniProt P00750); test: tPA serine protease activity with OVA heated in the presence of compounds (substrate S-2765); format: biochemical; design: purchased Boehringer Ingelheim Actilyse; settings: OVA heated with 1 mg/ml compound, 80-, 160- or 320-fold diluted, 100 nM tPA
tPA, sequence (P00750 36-562): as above
Protocol: For this purpose, the influence of the compounds on heat-denaturation of OVA was analyzed (see above: Thioflavin T fluorescence measurements). Heated OVA at 1 mg/ml in PBS in the presence or absence of 1 mg/ml of the twelve compounds listed in Table 7 in PBS/DMSO (final DMSO concentration 1%) was used 80-fold or 160-fold or 320-fold diluted (final heated OVA concentration and compound concentration was 12.5 or 6.3 or 3.1 μg/ml; final DMSO concentration was 0.013% and 0.006% and 0.003%).

human blood platelets = test: Platelet aggregation (aggregometric assay with washed platelets); format: cell-based
Protocol: The influence of amyloid-β(1-40) E22Q Dutch type (Aβ) peptide aggregates with cross-β structure conformation on blood platelet aggregation was tested with washed platelets in an aggregometric assay. Freshly drawn human aspirin free blood was mixed gently with citrate buffer to avoid coagulation. Blood was spinned for 15′ at 150*g at 20° C. and supernatant was collected; platelet rich plasma (PRP). […] After spinning down the platelets upon centrifugation for 15′ at 330*g at 20° C., the pellet was resuspended in HEPES-Tyrode buffer pH 6.5. Prostacyclin was added to a final concentration of 10 ng/ml, and the solution was centrifuged for 15′ at 330*g at 20° C., with a soft brake. The pellet was resuspended in HEPES-Tyrode buffer pH 7.2 in a way that the final platelet number was adjusted to 200,000/μl. Platelets were kept at 37° C. for at least 30′, before use in the assays, to ensure that they were in the resting state.
Aggregation of platelets was monitored in an aggregometer (Chrono-Log Corporation, Havertown, Pa., USA) for 15 minutes at 37° C. with a magnet stirring speed of 900 rpm. First, 270 μl of platelet solution was pipetted in the cuvettes and after 1 minute of stirring, 30 μl of preincubated (5 minutes, RT) Aβ and Hematein solution or control was added. The hematein stock was 10 mg/ml in HEPES-Tyrode buffer. The Aβ stock was 1 mg/ml. For blank readings unstirred HEPES Tyrode buffer was used. The aggregation is expressed as the percentage of the light transmission (0-100%). As a positive control, synthetic thrombin receptor activating peptide (TRAP) induced platelet aggregation was used. A control experiment was performed to study the influence of the red colour of hematein on the light transmission. For this, 4 μM TRAP was added at time 1 minute to the platelets, then hematein was added after 6 minutes of aggregation. The platelets were used for not more than 4 hours after isolation to reduce variations in sensitivity amongst subsequent measurements.
Ellagic acid was first dissolved to 100 mg/ml in DMSO, and then further diluted to 1 mg/ml in HBS buffer. Final concentrations of Aβ and ellagic acid in the aggregation assay were 50 μg/ml and 25/50 μg/ml, respectively. In addition, the influence of ellagic acid alone on platelet aggregation was tested. As a control, the influence of 0.08% DMSO on 50 μg/ml Aβ-induced platelet aggregation was analyzed. The 100% DMSO of the ellagic acid stock was diluted 2000 and 4000×, resulting in […] final DMSO concentrations in the aggregation assay.

T1 sequence (P69905 2-142 limits assumed): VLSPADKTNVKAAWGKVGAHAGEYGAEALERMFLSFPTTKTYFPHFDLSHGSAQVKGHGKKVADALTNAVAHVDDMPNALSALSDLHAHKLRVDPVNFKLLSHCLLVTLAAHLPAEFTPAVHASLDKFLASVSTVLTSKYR
T1 sequence (P68871 2-147 limits assumed): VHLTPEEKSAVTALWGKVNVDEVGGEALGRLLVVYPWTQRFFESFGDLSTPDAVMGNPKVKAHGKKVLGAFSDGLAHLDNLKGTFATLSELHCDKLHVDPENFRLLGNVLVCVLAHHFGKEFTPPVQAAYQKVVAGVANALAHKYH

Which “influence on tPA binding to immobilized Hb-AGE” value (Hb-AGE) does the source give for `O=C1C=C2CC3(O)COc4c(ccc(O)c4O)C3=C2C=C1O` (stereo not shown) [compound 152, Hematein] here?
The value was “Inhibited tPA binding to immobilized misfolded protein (Hb-”.

What about the “appearance of ovalbumin heated in the presence of compound on TEM image” value (ovalbumin; listed as Haematein) of the same molecule?
Its value is “No large aggregates. Small aggregates at a lower”.

And the “appearance of ovalbumin heated in the presence of compound on TEM image” value (ovalbumin; listed as haematein)?
Its value is “less OVA aggregates after heating in the presence of the”.

What about the “influence on tPA binding to immobilized Aβ” value (amyloid-β(1-40) E22Q) of the same molecule?
Its value is “Stimulated tPA binding to immobilized misfolded protein (Aβ,”.

And the “influence on Thioflavin T fluorescence with misfolded OVA” value (heat-denatured ovalbumin)?
The value was “Inhibition on Thioflavin T fluorescence with misfolded OVA”.

What about the “influence on tPA/plasminogen activation by OVA pre-heated in the presence of compound” value (tPA/plasminogen [1]) of the same molecule?
The value was “Inhibition of tPA/plasminogen activation by OVA pre-heated”.

What about the “influence on tPA/plasminogen activation by pre-formed misfolded OVA” value (tPA/plasminogen [2]) of the same molecule?
The value was “Full block of tPA/plasminogen activation by misfolded OVA”.

And the “influence on tPA protease activity of OVA heated in the presence of compound” value (tPA)?
Its value is “Potentiation of tPA protease activity”.

And the “influence on Aβ induced platelet aggregation” value (human blood platelets; 100 μg/ml Aβ and 333 μg/ml haematein added together)?
The value was “almost completely blocked; also recorded: potent inhibitor of misfolded Aβ-induced platelet aggregation; also recorded: Inhibition of Aβ-induced platelet aggregation”.

And the “reduction of TRAP-induced platelet aggregation” value (human blood platelets; TRAP and haematein pre-mixed)?
Its value is “approximately 10%”.
